Test results: US20260159512A1, “BCAT2 INHIBITORS” (AGIOS PHARMACEUTICALS, INC., priority 2021, published 2026)
pIC50: −log10 of the molar value. “And” between values parts separate entries of the source, which are not always exact repeats. Identical values can stand only once.

What was measured:
Details in all cases: average where tested multiple times
hBCAT1 = molecular target: T1, hBCAT1 (Homo sapiens, UniProt P54687); assay: BCAT1 in vitro enzyme inhibition assay (resazurin/diaphorase-coupled fluorescence); assay type: biochemical
T1 sequence (P54687 1-386): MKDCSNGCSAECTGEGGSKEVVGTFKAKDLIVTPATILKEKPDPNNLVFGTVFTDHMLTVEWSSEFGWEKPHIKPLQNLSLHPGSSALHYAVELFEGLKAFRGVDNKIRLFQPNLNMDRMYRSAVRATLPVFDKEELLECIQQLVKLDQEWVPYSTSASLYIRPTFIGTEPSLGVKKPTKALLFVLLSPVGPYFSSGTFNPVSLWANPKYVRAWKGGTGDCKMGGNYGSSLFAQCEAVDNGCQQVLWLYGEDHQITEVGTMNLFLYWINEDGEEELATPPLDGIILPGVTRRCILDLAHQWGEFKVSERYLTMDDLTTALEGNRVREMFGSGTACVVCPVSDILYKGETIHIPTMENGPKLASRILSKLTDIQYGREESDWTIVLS
Method in brief: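 Ten-point, 3-fold compound series (top final 100 μM, delivered 1:50 from 50× DMSO stocks) tested against hBCAT1. Inhibition detected via diaphorase-coupled resazurin fluorescence, duplicate wells, with values from repeated runs averaged.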

BCAT2 [1] = molecular target: T2, BCAT2 (Homo sapiens, UniProt O15382); assay: BCAT2 in vitro enzyme inhibition assay (resazurin/diaphorase-coupled fluorescence); assay type: biochemical
T2 sequence (O15382 28-392): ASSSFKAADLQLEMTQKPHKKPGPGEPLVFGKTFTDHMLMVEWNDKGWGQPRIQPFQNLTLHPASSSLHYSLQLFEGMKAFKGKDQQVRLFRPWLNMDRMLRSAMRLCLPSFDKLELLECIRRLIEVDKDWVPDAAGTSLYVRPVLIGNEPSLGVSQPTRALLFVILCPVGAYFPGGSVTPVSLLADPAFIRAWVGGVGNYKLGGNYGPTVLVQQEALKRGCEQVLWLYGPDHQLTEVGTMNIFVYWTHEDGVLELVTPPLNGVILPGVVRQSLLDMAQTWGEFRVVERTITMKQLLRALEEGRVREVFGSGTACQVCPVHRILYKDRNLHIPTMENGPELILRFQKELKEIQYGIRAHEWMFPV
Method in brief: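 Coupled fluorescence readout: glutamate formed from L-leucine/α-ketoglutarate transamination drives GDH/NAD/diaphorase reduction of resazurin (Ex 540/Em 590). Human BCAT2 was first exposed 1 h at room temperature to compound, top final 100 μM in 3-fold, 10-point series; substrate reaction ran 1 h before SDS quench, in technical duplicate with DMSO max and enzyme-free min controls.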

BCAT2 [2] = molecular target: T2, BCAT2; assay: BCAT2 in vitro cell inhibition using engineered A549 cells (KMV cell assay, 13C6-KMV by LC-MS/MS); assay type: cell-based; parameters: The result was an engineered A549 cell line that expressed endogenous BCAT2; endogenous in cells; host or cells: A549 cells with MUT and BCAT1 knocked out by CRISPR/CAS9; key to BCAT2 Cell Inhibition: A: less than or equal to 0.100 μM; B: greater than 0.100 and less than or equal to 0.500 μM; C: greater than 0.500 and less than or equal to 1.000 μM; d: greater than 1.000 μM; E: no fit

Compound	pIC50 (hBCAT1)	pIC50 (BCAT2 [1])	pIC50 (BCAT2 [2])	BCAT2 Cell Inhibition (BCAT2 [2])
C#Cc1cnc(C(=O)N[C@H]2CCC[C@@H](n3c(-c4ncccc4F)nc4cnc(-n5ccnn5)cc43)C2)s1 [Example 36, 5-ethynyl-N-((1S,3R)-3-(2-(3-fluoropyridin-2-yl)-6-(1H-1,2,3-triazol-1-yl)-1H-imidazo[4,5-c]pyridin-1-yl)cyclohexyl)thiazole-2-carboxamide]	6.00 to 6.30	≥ 7.00	6.30 to 7.00	
CC(=O)N1CC(NC(=O)c2ccc(Br)s2)CC(n2c(-c3ncccc3F)nc3cc(-c4nnco4)ccc32)C1 (stereo not drawn) [Example 283, N-(1-acetyl-5-(2-(3-fluoropyridin-2-yl)-5-(1,3,4-oxadiazol-2-yl)-1H-benzo[d]imidazol-1-yl)piperidin-3-yl)-5-bromothiophene-2-carboxamide]	< 5.30 and 5.30 to 6.00	≥ 7.00	< 6.00	
O=C(N[C@H]1CCC[C@@H](n2c(-c3ncccc3F)nc3cnc(-n4nccn4)cc32)C1)c1ncc(Br)s1 [Example 22, 5-bromo-N-((1S,3R)-3-(2-(3-fluoropyridin-2-yl)-6-(2H-1,2,3-triazol-2-yl)-1H-imidazo[4,5-c]pyridin-1-yl)cyclohexyl)thiazole-2-carboxamide]	> 6.30	≥ 7.00	≥ 7.00	
Cc1noc(C)c1-c1nc2cnc(-n3ccnn3)cc2n1[C@@H]1CCC[C@H](NC(=O)c2ncc(C(F)F)s2)C1 [Example 48, 5-(difluoromethyl)-N-((1S,3R)-3-(2-(3,5-dimethylisoxazol-4-yl)-6-(1H-1,2,3-triazol-1-yl)-1H-imidazo[4,5-c]pyridin-1-yl)cyclohexyl)thiazole-2-carboxamide]	< 5.30	< 6.00		E
O=C(N[C@H]1CCC[C@@H](n2c(-c3ccccc3F)nc3cnc(N4CCC(O)C4)cc32)C1)c1ncc(Cl)s1 (stereo partly drawn) [Example 199, 5-chloro-N-((1S,3R)-3-(2-(2-fluorophenyl)-6-(3-hydroxypyrrolidin-1-yl)-1H-imidazo[4,5-c]pyridin-1-yl)cyclohexyl)thiazole-2-carboxamide]	< 5.30	≥ 7.00	< 6.00	
CC(C)[C@@H](O)c1nc2cnc(-c3ncccn3)cc2n1[C@@H]1CCC[C@H](NC(=O)c2ncc(Cl)s2)C1 [Example 172, 5-chloro-N-((1S,3R)-3-(2-((R)-1-hydroxy-2-methylpropyl)-6-(pyrimidin-2-yl)-1H-imidazo[4,5-c]pyridin-1-yl)cyclohexyl)thiazole-2-carboxamide]	> 6.30	≥ 7.00	6.00 to 6.30	
C#Cc1cnc(C(=O)N[C@H]2CCC[C@@H](n3c(-c4ccccn4)nc4cnc(-n5ccnn5)cc43)C2)s1 [Example 33, 5-ethynyl-N-((1S,3R)-3-(2-(pyridin-2-yl)-6-(1H-1,2,3-triazol-1-yl)-1H-imidazo[4,5-c]pyridin-1-yl)cyclohexyl)thiazole-2-carboxamide]	5.30 to 6.00	≥ 7.00	6.00 to 6.30	
CC(C)Cc1nc2cnc(-c3ccn(C(F)F)n3)cc2n1[C@@H]1CC(O)C[C@H](NC(=O)c2ncc(Cl)s2)C1 (stereo in doubt) [Example 213, 5-chloro-N-((1R,3S,5R)-3-(6-(1-(difluoromethyl)-1H-pyrazol-3-yl)-2-isobutyl-1H-imidazo[4,5-c]pyridin-1-yl)-5-hydroxycyclohexyl)thiazole-2-carboxamide]	6.00 to 6.30	≥ 7.00	6.00 to 6.30	
O=C(N[C@H]1CCC[C@@H](n2c(-c3ccccc3F)nc3cnc(-n4nccn4)cc32)C1)c1ccc(Br)s1 [Example 15, 5-bromo-N-((1S,3R)-3-(2-(2-fluorophenyl)-6-(2H-1,2,3-triazol-2-yl)-1H-imidazo[4,5-c]pyridin-1-yl)cyclohexyl)thiophene-2-carboxamide]	> 6.30	≥ 7.00	≥ 7.00	
CO[C@H]1C[C@H](NC(=O)c2ncc(Cl)s2)C[C@H](n2c(CC(C)C)nc3cnc(-c4ncc(C)o4)cc32)C1 (single isomer, unassigned) [Example 427]	6.00 to 6.30	≥ 7.00	6.30 to 7.00	
O=C(N[C@H]1CCC[C@@H](n2c(-c3ccccc3F)nc3cnc(-c4ncn(C(F)F)n4)cc32)C1)c1ncc(Cl)s1 [Example 378, 5-chloro-N-((1S,3R)-3-(6-(1-(difluoromethyl)-1H-1,2,4-triazol-3-yl)-2-(2-fluorophenyl)-1H-imidazo[4,5-c]pyridin-1-yl)cyclohexyl)thiazole-2-carboxamide]	> 6.30	≥ 7.00	≥ 7.00	
O=C(N[C@H]1CCC[C@@H](n2c(-c3ccccc3F)nc3cnc(O[C@H]4CCOC4)cc32)C1)c1ncc(Cl)s1 [Example 267, 5-chloro-N-((1S,3R)-3-(2-(2-fluorophenyl)-6-(((S)-tetrahydrofuran-3-yl)oxy)-1H-imidazo[4,5-c]pyridin-1-yl)cyclohexyl)thiazole-2-carboxamide]	> 6.30	6.30 to 7.00	6.30 to 7.00	
O=C(N[C@H]1C[C@H](O)C[C@@H](n2c(-c3ccccc3F)nc3cnc(-n4nccn4)cc32)C1)c1ncc(Cl)s1 (single isomer, unassigned) [Example 110]	> 6.30	≥ 7.00	≥ 7.00	
COC(c1nc2cnc(-c3nc[nH]n3)cc2n1[C@@H]1CCC[C@H](NC(=O)c2ncc(Cl)s2)C1)C(C)C (stereo partly drawn) [Example 314, 5-chloro-N-((1S,3R)-3-(2-(1-methoxy-2-methylpropyl)-6-(1H-1,2,4-triazol-3-yl)-1H-imidazo[4,5-c]pyridin-1-yl)cyclohexyl)thiazole-2-carboxamide]	> 6.30	≥ 7.00	6.30 to 7.00	
O=C(N[C@H]1CCC[C@@H](n2c(-c3ccccc3F)nc3cnc(-n4nccn4)cc32)C1)c1ncc(Cl)s1 [Example 71, 5-chloro-N-((1S,3R)-3-(2-(2-fluorophenyl)-6-(2H-1,2,3-triazol-2-yl)-1H-imidazo[4,5-c]pyridin-1-yl)cyclohexyl)thiazole-2-carboxamide]	> 6.30	≥ 7.00	≥ 7.00	
O=C(N[C@H]1CCC[C@@H](n2c(-c3c(O)cccc3F)nc3cnc(-n4nccn4)cc32)C1)c1ncc(Cl)s1 [Example 354, 5-chloro-N-((1S,3R)-3-(2-(2-fluoro-6-hydroxyphenyl)-6-(2H-1,2,3-triazol-2-yl)-1H-imidazo[4,5-c]pyridin-1-yl)cyclohexyl)thiazole-2-carboxamide]	> 6.30	≥ 7.00	≥ 7.00	
Cn1cc(-c2nc3cnc(-n4nccn4)cc3n2[C@@H]2CCC[C@H](NC(=O)c3ncc(C(F)F)s3)C2)cn1 [Example 45, 5-(difluoromethyl)-N-((1S,3R)-3-(2-(1-methyl-1H-pyrazol-4-yl)-6-(2H-1,2,3-triazol-2-yl)-1H-imidazo[4,5-c]pyridin-1-yl)cyclohexyl)thiazole-2-carboxamide]	< 5.30	< 6.00		E
CC(C)C(O)c1nc2cnc(-c3nc[nH]n3)cc2n1[C@@H]1CCC[C@H](NC(=O)c2ncc(Cl)s2)C1 (single isomer, unassigned) [Example 183]	> 6.30	≥ 7.00	6.30 to 7.00	
O=C(N[C@H]1CCC[C@@H](n2c(-c3ccccn3)nc3cnc(-c4ncco4)cc32)C1)c1ccc(Br)s1 [Example 5, 5-bromo-N-((1S,3R)-3-(6-(oxazol-2-yl)-2-(pyridin-2-yl)-1H-imidazo[4,5-c]pyridin-1-yl)cyclohexyl)thiophene-2-carboxamide]	> 6.30	≥ 7.00	≥ 7.00	
